{"source": "patent US20140072604A1", "about": "“Block Copolymer For Intraperitoneal Administration Containing Anti-Cancer Agent, Micelle Preparation Thereof, And Cancer Therapeutic Agent Comprising The Micelle Preparation As Active Ingredient” (priority 2009, published 2014)", "type_in_all_cases": "in vivo, BALB/c nude mouse", "key": {"[1]": {"system": "human ovarian cancer cell line ES-2", "assay": "Life-prolonging effect in nude mouse model for peritoneal disseminated metastasis (ES-2), intraperitoneal administration", "details": "once three days after tumor transplantation, observed until 80 days", "procedure": "Therapeutic effects on peritoneal disseminated metastasis were tested by using a mouse model for peritoneal disseminated metastasis. Specifically, the mouse model for peritoneal disseminated metastasis was prepared by intraperitoneal injection of human ovarian cancer cell line ES-2 (1.0×10^6 cells) to an 8-week old BALB/c nude mouse.\nIn order to estimate advantageous life-prolonging effects of the present micelle preparation having encapsulated paclitaxel, the model mice were divided into three groups, i.e., 8 mice per group. […] In addition, the drug dosage was determined by converting a clinical dosage for intravenous route (paclitaxel 210 mg/m^2 and paclitaxel micelle preparation: 150 mg/m^2) to those for a mouse using an AUC comparison. […]\n1 ml of saline (Control group); 1 ml of saline containing 66.7 mg/kg of irinotecan hydrochloride (66.7 mg/kg CPT-11 administered group); and 1 ml of 5% glucose solution containing the micelle preparation containing 30 mg/kg of SN-38 (30 mg/kg SN-38 micelle administered group) were intraperitoneally administered to the mouse of each group, respectively. […] In addition, the drug dosage was determined as the one-third of the maximum amount allowed for intravenous route administration for a mouse. […]"}, "[2]": {"system": "human ovarian cancer cell line SHIN-3", "assay": "Life-prolonging effect in nude mouse model for peritoneal disseminated metastasis (SHIN-3), intraperitoneal administration", "method": "In order to estimate an effect of intraperitoneal administration of the micelle preparation having encapsulated paclitaxel, a mouse model for peritoneal disseminated metastasis was prepared by intraperitoneal injection of human ovarian cancer cell line SHIN-3 (1.0×10^7 cells) to an 8-week old BALB/c nude mouse. Three groups were created as following: 1 ml of saline (Control group, 18 mice); 1 ml of saline containing […] of paclitaxel (100 mg/kg PTX administered group, 8 mice); and 1 ml of 5% glucose solution containing the micelle preparation containing 50 mg/ml of encapsulated paclitaxel (50 mg/kg PTX micelle administered group, 8 mice) were intraperitoneally administered to the mouse of each group, respectively. The amounts of the ingredients were of by 20 g mouse body weight. The administrations were carried out once after one week of the tumor transplantations. The mice were observed until 120 days after the cell transplantation. The survival rates were recorded and the survival curves was plotted in FIG. 3."}, "[3]": {"system": "human stomach cancer cell line MKN45-P", "assay": "Life-prolonging effect in nude mouse model for peritoneal disseminated metastasis (MKN45-P), intraperitoneal administration", "details": "50 mg/kg, once three days after tumor transplantation, observed until 60 days", "method": "In order to estimate an effect of intraperitoneal administration of a micelle preparation having encapsulated paclitaxel, a mouse model for peritoneal disseminated metastasis was prepared by intraperitoneal injection of human stomach cancer cell line MKN45-P (1.0×10^6 cells) to an 8-week old BALB/c nude mouse. Three groups were created as following: 1 ml of saline (Control group, 8 mice); 1 ml of saline containing 50 mg/ml of paclitaxel (50 mg/kg PTX administered group, 8 mice); and 1 ml of 5% glucose solution containing the micelle preparation containing 25 mg/ml of encapsulated paclitaxel (25 mg/kg PTX micelle administered group, 8 mice) were intraperitoneally administered to the mouse of each group, respectively. The amounts of the ingredients were of by 25 g mouse body weight. The administrations were carried out once after three days of the tumor transplantation. The mice were observed until 60 days after the cell transplantation. The survival rates was recorded and the survival curves was plotted in FIG. 4."}}, "note": "Where a name gives a salt, the structure may show the parent alone.", "data": [{"smiles": "CCc1c2c(nc3ccc(OC(=O)N4CCC(N5CCCCC5)CC4)cc13)-c1cc3c(c(=O)n1C2)COC(=O)[C@]3(O)CC", "note": "[CPT-11, irinotecan hydrochloride]", "values": [{"measurement": "50% survival rate, day after transplantation", "setting": "[1]; 66.7 mg/kg, Control Day 21", "value": 56, "unit": "days"}]}, {"smiles": "CC(=O)O[C@H]1C(=O)[C@@]2(C)[C@H]([C@H](OC(=O)c3ccccc3)[C@]3(O)C[C@H](OC(=O)[C@H](O)[C@@H](NC(=O)c4ccccc4)c4ccccc4)C(C)=C1C3(C)C)[C@]1(OC(C)=O)CO[C@@H]1C[C@@H]2O", "note": "[PTX, paclitaxel]", "values": [{"measurement": "50% survival rate, day after transplantation", "setting": "[1]; 70 mg/kg, Control Day 17", "value": 44, "unit": "days"}, {"measurement": "toxic death", "setting": "[2]; 100 mg/kg PTX administered group, 8 mice, once", "value": "two cases of toxic death"}, {"measurement": "50% survival rate, day after transplantation", "setting": "[2]; 100 mg/kg, once one week after tumor transplantation, observed until 120 days", "value": 100, "unit": "days"}, {"measurement": "50% survival rate, day after transplantation", "setting": "[3]", "value": 55, "unit": "days"}]}]}
